According to patent US9206184B2, “Disubstituted benzothienyl-pyrrolotriazines and uses thereof” (BAYER INTELLECTUAL PROPERTY GmbH, priority 2011, dated 2015):
Counter-ions that a name gives are not always drawn.

Legend:
human FGFR-3 = human FGFR-3 (Homo sapiens (Human), UniProt P22607); assay: FGFR-3 kinase assay (TR-FRET); type: biochemical; conditions: 10 μM ATP, 15 min pre-incubation with enzyme, compounds of the invention
human mTOR = human mTOR (Homo sapiens (Human), UniProt P42345); assay: mTOR kinase assay (TR-FRET, for comparative purposes); type: biochemical; conditions: mean inhibition at 1 μM test compound; 40 μM ATP
[1] = system: Human umbilical vein endothelial cells (HUVEC); assay: Inhibition of growth factor-mediated cell proliferation (hFGF-2, HUVEC); type: cell-based; conditions: 72 h, read-out: hFGF-2 mediated HUVEC proliferation, IC50 [nM]
human FGFR-1 = human FGFR-1 (Homo sapiens, UniProt P11362); assay: FGFR-1 high ATP kinase assay (TR-FRET); type: biochemical; conditions: 2 mM ATP; 15 min pre-incubation with enzyme; compounds of the invention
Sequence of human FGFR-1 (P11362 22-822 limits assumed): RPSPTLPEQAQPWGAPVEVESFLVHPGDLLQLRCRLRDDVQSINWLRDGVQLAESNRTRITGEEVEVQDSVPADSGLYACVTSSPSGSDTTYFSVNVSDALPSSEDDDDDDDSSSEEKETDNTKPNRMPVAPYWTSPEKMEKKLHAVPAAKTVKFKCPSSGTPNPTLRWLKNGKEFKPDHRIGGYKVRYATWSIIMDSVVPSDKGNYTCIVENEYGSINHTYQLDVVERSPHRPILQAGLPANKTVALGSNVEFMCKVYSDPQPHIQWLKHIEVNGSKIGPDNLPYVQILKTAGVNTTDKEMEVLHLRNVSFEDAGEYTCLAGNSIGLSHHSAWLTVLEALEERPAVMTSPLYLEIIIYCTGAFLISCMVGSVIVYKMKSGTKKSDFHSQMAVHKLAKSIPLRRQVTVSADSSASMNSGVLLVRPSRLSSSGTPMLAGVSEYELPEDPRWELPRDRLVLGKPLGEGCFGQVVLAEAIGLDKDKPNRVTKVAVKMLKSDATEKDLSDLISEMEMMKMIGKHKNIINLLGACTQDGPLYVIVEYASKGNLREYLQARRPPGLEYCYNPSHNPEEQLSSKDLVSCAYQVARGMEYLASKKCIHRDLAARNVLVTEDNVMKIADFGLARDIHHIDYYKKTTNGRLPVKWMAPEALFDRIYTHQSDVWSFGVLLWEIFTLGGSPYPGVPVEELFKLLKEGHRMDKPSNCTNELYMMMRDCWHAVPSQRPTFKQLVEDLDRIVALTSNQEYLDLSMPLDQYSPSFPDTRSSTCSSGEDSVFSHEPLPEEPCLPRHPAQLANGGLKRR

Sequence of human FGFR-3 (P22607 397-806): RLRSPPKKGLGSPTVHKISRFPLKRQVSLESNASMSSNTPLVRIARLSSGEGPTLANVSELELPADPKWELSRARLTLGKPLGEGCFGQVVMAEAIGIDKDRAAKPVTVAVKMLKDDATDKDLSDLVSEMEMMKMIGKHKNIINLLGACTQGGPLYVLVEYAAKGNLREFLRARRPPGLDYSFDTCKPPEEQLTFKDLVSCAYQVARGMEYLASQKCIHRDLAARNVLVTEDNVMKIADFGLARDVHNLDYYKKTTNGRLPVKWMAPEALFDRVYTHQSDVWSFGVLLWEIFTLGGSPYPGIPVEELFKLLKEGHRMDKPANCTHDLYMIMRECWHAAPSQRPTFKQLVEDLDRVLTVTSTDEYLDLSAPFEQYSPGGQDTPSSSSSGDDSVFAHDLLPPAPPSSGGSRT
Sequence of human mTOR (P42345 1360-2549): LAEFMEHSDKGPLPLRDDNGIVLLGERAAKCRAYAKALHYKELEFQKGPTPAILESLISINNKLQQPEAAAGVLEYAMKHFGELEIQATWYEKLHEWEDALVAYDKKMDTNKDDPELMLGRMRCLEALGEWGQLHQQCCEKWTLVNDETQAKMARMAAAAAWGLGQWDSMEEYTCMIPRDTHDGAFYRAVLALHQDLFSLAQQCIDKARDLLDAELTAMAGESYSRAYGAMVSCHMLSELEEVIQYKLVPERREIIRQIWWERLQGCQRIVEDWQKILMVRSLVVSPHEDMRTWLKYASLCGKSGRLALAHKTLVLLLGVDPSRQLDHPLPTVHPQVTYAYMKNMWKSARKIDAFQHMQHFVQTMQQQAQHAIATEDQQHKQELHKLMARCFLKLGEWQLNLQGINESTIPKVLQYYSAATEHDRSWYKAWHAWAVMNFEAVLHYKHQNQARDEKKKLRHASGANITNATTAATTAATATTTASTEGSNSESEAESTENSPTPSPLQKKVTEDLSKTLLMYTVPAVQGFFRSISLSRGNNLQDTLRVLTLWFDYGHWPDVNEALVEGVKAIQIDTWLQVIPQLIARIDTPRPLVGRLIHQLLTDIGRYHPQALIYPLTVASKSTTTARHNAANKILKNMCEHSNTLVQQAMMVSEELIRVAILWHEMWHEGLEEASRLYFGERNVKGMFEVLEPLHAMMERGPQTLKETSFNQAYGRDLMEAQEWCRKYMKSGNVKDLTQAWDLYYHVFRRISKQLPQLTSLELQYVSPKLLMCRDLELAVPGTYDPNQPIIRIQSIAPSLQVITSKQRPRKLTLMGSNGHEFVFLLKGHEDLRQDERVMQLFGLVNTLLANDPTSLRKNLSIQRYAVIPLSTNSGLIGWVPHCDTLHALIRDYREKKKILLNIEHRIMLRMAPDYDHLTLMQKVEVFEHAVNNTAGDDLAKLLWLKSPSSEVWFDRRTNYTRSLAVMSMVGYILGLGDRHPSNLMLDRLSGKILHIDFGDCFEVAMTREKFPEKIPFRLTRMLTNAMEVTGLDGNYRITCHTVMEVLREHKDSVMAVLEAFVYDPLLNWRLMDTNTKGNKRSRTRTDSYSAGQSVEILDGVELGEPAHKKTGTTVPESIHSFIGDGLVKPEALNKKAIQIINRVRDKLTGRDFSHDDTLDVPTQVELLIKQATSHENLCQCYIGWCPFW

Row | SMILES | IC50 (human FGFR-3) | mTOR inhibition @ 1 μM (human mTOR) | IC50 [1] | IC50 (human FGFR-3; dihydrochloride) | IC50 (human FGFR-1)
1 | COc1cc(C)cc2cc(-c3c(CN4CCC(O)C4)c(CN4CCNCC4)n4ncnc(N)c34)sc12 (racemic) [Example 42, rac-1-{[4-Amino-5-(7-methoxy-5-methyl-1-benzothiophen-2-yl)-7-(piperazin-1-ylmethyl)pyrrolo-[2,1-f][1,2,4]triazin-6-yl]methyl}pyrrolidin-3-ol trihydrochloride] | 0.0184 µM | no inhib. effect detect. |  |  | 
2 | CCOCc1c(-c2cc3cc(C)cc(OC)c3s2)c2c(N)ncnn2c1CNCC(N)=O [Example 9, N^2-{[4-Amino-6-(ethoxymethyl)-5-(7-methoxy-5-methyl-1-benzothiophen-2-yl)pyrrolo[2,1-f]-[1,2,4]triazin-7-yl]methyl}glycinamide dihydrochloride] |  | no inhib. effect detect. |  |  | 
3 | CCOCc1c(-c2cc3cc(C)cc(OC)c3s2)c2c(N)ncnn2c1CN1CCN(C(C)=O)CC1 [Example 11, 1-(4-{[4-Amino-6-(ethoxymethyl)-5-(7-methoxy-5-methyl-1-benzothiophen-2-yl)pyrrolo[2,1-f]-[1,2,4]triazin-7-yl]methyl}piperazin-1-yl)ethanone dihydrochloride] |  |  | 150 nM | 0.013 µM | 
4 | COCc1c(-c2cc3cc(C)cc(OC)c3s2)c2c(N)ncnn2c1CN1CC[C@](C)(N)C1 [Example 14, 7-{[(3S)-3-Amino-3-methylpyrrolidin-1-yl]methyl}-6-(methoxymethyl)-5-(7-methoxy-5-methyl-1-benzothiophen-2-yl)pyrrolo[2,1-f][1,2,4]triazin-4-amine trihydrochloride] |  |  | 25 nM |  | 0.0014 µM
5 | COCc1c(-c2cc3cc(C)cc(OC)c3s2)c2c(N)ncnn2c1CN1CCN(C(C)=O)CC1 [Example 16, 1-(4-{[4-Amino-6-(methoxymethyl)-5-(7-methoxy-5-methyl-1-benzothiophen-2-yl)pyrrolo[2,1-f]-[1,2,4]triazin-7-yl]methyl}piperazin-1-yl)ethanone dihydrochloride] |  |  | 117 nM |  | 
6 | CCOCc1c(-c2cc3cc(C)cc(OC)c3s2)c2c(N)ncnn2c1CN1CCNCC1 [Example 18, 6-(Ethoxymethyl)-5-(7-methoxy-5-methyl-1-benzothiophen-2-yl)-7-(piperazin-1-ylmethyl)pyrrolo-[2,1-f][1,2,4]triazin-4-amine] |  | no inhib. effect detect. |  |  | 
7 | COCCOCc1c(-c2cc3cc(C)cc(OC)c3s2)c2c(N)ncnn2c1CN1CCNCC1 [Example 28, 6-[(2-Methoxyethoxy)methyl]-5-(7-methoxy-5-methyl-1-benzothiophen-2-yl)-7-(piperazin-1-ylmethyl)pyrrolo[2,1-f][1,2,4]triazin-4-amine formiate] | 0.0097 µM | no inhib. effect detect. |  |  | 0.0021 µM
8 | CCNCc1c(-c2cc3cc(C)cc(OC)c3s2)c2c(N)ncnn2c1CN1CCNCC1 [Example 38, 6-[(Ethylamino)methyl]-5-(7-methoxy-5-methyl-1-benzothiophen-2-yl)-7-(piperazin-1-ylmethyl)pyrrolo[2,1-f][1,2,4]triazin-4-amine trihydrochloride] |  |  | 213 nM |  | 
9 | COc1cc(C)cc2cc(-c3c(CNCCO)c(CN4CCNCC4)n4ncnc(N)c34)sc12 [Example 39, 2-({[4-Amino-5-(7-methoxy-5-methyl-1-benzothiophen-2-yl)-7-(piperazin-1-ylmethyl)pyrrolo-[2,1-f][1,2,4]triazin-6-yl]methyl}amino)ethanol trihydrochloride] |  |  | 365 nM |  | 
10 | COc1cc(C)cc2cc(-c3c(CN4CCC(O)CC4)c(CN4CCNCC4)n4ncnc(N)c34)sc12 [Example 41, 1-{[4-Amino-5-(7-methoxy-5-methyl-1-benzothiophen-2-yl)-7-(piperazin-1-ylmethyl)pyrrolo-[2,1-f][1,2,4]triazin-6-yl]methyl}piperidin-4-ol trihydrochloride] | 0.0072 µM | no inhib. effect detect. |  |  | 0.0028 µM
11 | COc1cc(C)cc2cc(-c3c(CN4CCCC4)c(CN4CCNCC4)n4ncnc(N)c34)sc12 [Example 45, 5-(7-Methoxy-5-methyl-1-benzothiophen-2-yl)-7-(piperazin-1-ylmethyl)-6-(pyrrolidin-1-ylmethyl)pyrrolo[2,1-f][1,2,4]triazin-4-amine trihydrochloride] |  |  | 171 nM |  | 
12 | COc1cc(C)cc2cc(-c3c(CNC4CC4)c(CN4CCNCC4)n4ncnc(N)c34)sc12 [Example 46, 6-[(Cyclopropylamino)methyl]-5-(7-methoxy-5-methyl-1-benzothiophen-2-yl)-7-(piperazin-1-ylmethyl)pyrrolo[2,1-f][1,2,4]triazin-4-amine trihydrochloride] |  |  | 84.5 nM |  | 
13 | COc1cc(C)cc2cc(-c3c(CNCC(=O)O)c(CN4CCNCC4)n4ncnc(N)c34)sc12 [Example 48, N-{[4-Amino-5-(7-methoxy-5-methyl-1-benzothiophen-2-yl)-7-(piperazin-1-ylmethyl)pyrrolo-[2,1-f][1,2,4]triazin-6-yl]methyl}glycine trihydrochloride] | 0.0454 µM |  | 360 nM |  | 
14 | COc1cc(C)cc2cc(-c3c(CNC(C)=O)c(CN4CCNCC4)n4ncnc(N)c34)sc12 [Example 64, N-{[4-Amino-5-(7-methoxy-5-methyl-1-benzothiophen-2-yl)-7-(piperazin-1-ylmethyl)pyrrolo-[2,1-f][1,2,4]triazin-6-yl]methyl}acetamide dihydrochloride] |  |  | 4.5 nM |  | 
15 | COCc1c(-c2cc3cc(C)ccc3s2)c2c(N)ncnn2c1CN1CCNC(=O)C1 [Example 89, 4-{[4-Amino-6-(methoxymethyl)-5-(5-methyl-1-benzothiophen-2-yl)pyrrolo[2,1-f][1,2,4]triazin-7-yl]methyl}piperazin-2-one] |  | no inhib. effect detect. |  |  | 0.0829 µM
16 | CCOCc1c(-c2cc3cc(C)cc(OC)c3s2)c2c(N)ncnn2c1CN1CCC(O)CC1 [Example 98] |  | no inhib. effect detect. |  |  | 0.017 µM
17 | CCOCc1c(-c2cc3cc(C)cc(OC)c3s2)c2c(N)ncnn2c1C(=O)N1CCNC(=O)C1 [Example 107, 4-{[4-Amino-6-(ethoxymethyl)-5-(7-methoxy-5-methyl-1-benzothiophen-2-yl)pyrrolo[2,1-f]-[1,2,4]triazin-7-yl]carbonyl}piperazin-2-one] | 0.0174 µM | no inhib. effect detect. |  |  | 0.0094 µM
18 | CCOCc1c(-c2cc3cc(C)cc(OC)c3s2)c2c(N)ncnn2c1C(=O)N1CCS(=O)(=O)C1 [Example 119] | 0.0045 µM | no inhib. effect detect. |  |  | 0.009 µM
19 | CCOCc1c(-c2cc3cc(C)cc(OC)c3s2)c2c(N)ncnn2c1C(=O)N1CCC(O)CC1 [Example 121] | 0.0246 µM | no inhib. effect detect. |  |  | 0.0082 µM
